This test deals with T1, hAhR (Homo sapiens, UniProt P35869).
T1 construct: Stably integrated DRE-luciferase cell lines were generated by transducing the both cell lines with Cignal XRE luciferase reporter (Qiagen) lentiviral particles; endogenous in cells; host or cells: HEPG2 (human hepatoma) with stably integrated XRE/DRE-luciferase reporter
T1 sequence (P35869 11-848): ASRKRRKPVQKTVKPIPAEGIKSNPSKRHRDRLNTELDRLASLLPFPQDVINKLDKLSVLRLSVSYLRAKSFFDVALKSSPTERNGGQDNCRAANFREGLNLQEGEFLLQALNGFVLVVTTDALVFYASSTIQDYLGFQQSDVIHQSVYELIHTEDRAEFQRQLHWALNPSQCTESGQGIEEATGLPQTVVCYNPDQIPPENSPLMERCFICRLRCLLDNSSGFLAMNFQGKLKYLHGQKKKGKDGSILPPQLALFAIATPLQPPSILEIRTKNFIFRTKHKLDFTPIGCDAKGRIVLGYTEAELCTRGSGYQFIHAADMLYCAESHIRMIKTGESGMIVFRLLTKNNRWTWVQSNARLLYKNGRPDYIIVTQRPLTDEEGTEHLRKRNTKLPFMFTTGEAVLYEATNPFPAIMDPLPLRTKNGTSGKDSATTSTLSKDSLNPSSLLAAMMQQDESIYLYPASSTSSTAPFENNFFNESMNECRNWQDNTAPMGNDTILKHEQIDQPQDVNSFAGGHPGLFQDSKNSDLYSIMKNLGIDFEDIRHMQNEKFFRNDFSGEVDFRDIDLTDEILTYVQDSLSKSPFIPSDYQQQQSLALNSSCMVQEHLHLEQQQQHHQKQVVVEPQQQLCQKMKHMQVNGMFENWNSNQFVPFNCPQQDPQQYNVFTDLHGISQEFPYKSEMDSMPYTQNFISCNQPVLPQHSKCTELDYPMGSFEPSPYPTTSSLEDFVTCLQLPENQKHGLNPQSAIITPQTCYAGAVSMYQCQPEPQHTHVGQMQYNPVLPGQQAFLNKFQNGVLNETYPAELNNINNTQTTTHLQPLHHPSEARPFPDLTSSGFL
Briefly: DRE-luciferase transcriptional assay, antagonist mode, in HEPG2 DRE-Luc cells stimulated with TCDD. Format: cell-based. The conditions noted are these: for pIC50: relative IC50, read-out: IC50 hAhR (antagonist mode); for Emax: read-out: HEPG2 % Max Inhibition. The procedure: HEPG2 and HEPA1C1C7 cells were maintained in MEM and αMEM without nucleosides supplemented with 10% heat inactivated FBS respectively. Stably integrated DRE-luciferase cell lines were generated by transducing the both cell lines with Cignal XRE luciferase reporter (Qiagen) lentiviral particles according to the manufacturer protocol. For both cell lines stably integrated reporter cell lines were selected for the presence of 2 μg/mL puromycin. Following selection of stably integrated cell line pools, clonal cell lines were isolated by limiting dilution in 96-well plates. Transcriptional assays were performed by seeding 100 μL of cells at a density of 250,000 or 100,000 cells/mL, for HEPG2 and HEPA1C1C7 DRE-Luc cells respectively, into 96-well cell culture plates in OptiMEM supplemented with 0.5% heat inactivated FBS and allowed to attach overnight. For antagonist assays, the compounds were added in a semi-log dose response using a D300e Digital Dispenser (Tecan) followed normalization with vehicle (DMSO). Immediately following compound addition […] of 2,3,7,8-Tetrachlorodibenzo-p-dioxin (TCDD) was added to the cells to a final concentration of 3 nM or 0.3 nM for the HEPG2 and HEPA1C1C7 DRE-Luc cells respectively. Following 24 h incubation the medium was removed and the cells were lysed in 25 μL of Reporter Lysis Buffer (Promega). Firefly luciferase activity was measured immediately following the addition of 50 μL Luciferase Assay Reagent (Promega). The percent maximal activity for each point was determined using the following equation: 100−(RLUsample−RLUvehicle−TCDD)/(RLUvehicle+TCDD RLUvehicle−TCDD)*100. The relative IC50, defined as the compound concentration required to reduce the TCDD induced response between the top and bottom plateau of each individual dose response curve by half, for each compound was determined using Prism 7 (GraphPad Software).

Setting [1] is: HEPG2 DRE-Luc cells, 3 nM TCDD, 24 h incubation.

Drawing on patent US11530220B2, “Substituted imidazo[1,5-a]pyrazines and [1,2,4]triazolo[4,3-a]pyrazines for the modulation of AhR” (IDEAYA BIOSCIENCES, INC., priority 2018, dated 2022), this text covers IC50 and Emax for 26 molecules.

pIC50: −log10 of the molar value. Read-outs that look alike come from different tables or passages of the source.

Take `Cc1cncc(-c2cn3c(C(C)C)ncc3c(NCCc3ccc(O)cc3)n2)c1` [Example 10, 4-(2-{[6-(5-methyl(3-pyridyl))-3-isopropyl-4-hydroimidazo[1,5-a]pyrazin-8-yl]amino}ethyl)phenol]: the pIC50 under setting [1] was 5.00 to 6.00. Under “HepG2, 24 h”, the Emax stood at 47%.

Turning to `Cc1cncc(-c2cn3c(C(C)C)nnc3c(NCCc3c[nH]c4ccccc34)n2)c1` [Example 3], under setting [1], the Emax came to 100% and the pIC50 is greater than 6.70.

With `CC(C)c1cnc2c(NCCc3c[nH]c4ccccc34)nc(-c3cncc(C#N)c3)cn12` [Example 8, 5-{8-[(2-indol-3-ylethyl)amino]-3-isopropyl-4-hydroimidazo[1,5-a]pyrazin-6-yl}pyridine-3-carbonitrile], under setting [1], the Emax came out at 100% and the pIC50 was greater than 6.70.

Turning to `Cc1ncc(-c2cn3c(C(C)C)cnc3c(NCCc3c[nH]c4cccc(F)c34)n2)cc1F` [Example 26], under setting [1], the Emax was 98% and the negative-log IC50 (pIC50) is 6.30 to 6.70.

Regarding `Cc1nccn1-c1cn2c(C(C)C)cnc2c(NCCc2c[nH]c3ccc(F)cc23)n1` [Example 13, [2-(5-fluoroindol-3-yl)ethyl][3-isopropyl-6-(2-methylimidazolyl)(4-hydroimidazo[1,2-a]-pyrazin-8-yl)]amine], the Emax under setting [1] came out at 99%.

Take `Cc1nccn1-c1cn2c(C(C)C)cnc2c(NCCc2c[nH]c3cccc(F)c23)n1` [Example 14, [2-(4-fluoroindol-3-yl)ethyl][3-isopropyl-6-(2-methylimidazolyl)(4-hydroimidazo[1,2-a]-pyrazin-8-yl)]amine]: under setting [1], the Emax amounted to 100% and the negative logarithm of the IC50 (pIC50) was greater than 6.70.

In the case of `Cc1nccn1-c1cn2c(C(C)C)cnc2c(N[C@@H](C)Cc2c[nH]c3ccccc23)n1` [Example 17b, ((1S)-2-indol-3-yl-isopropyl)[3-isopropyl-6-(2-methylimidazolyl)(4-hydroimidazo[1,2-a]-pyrazin-8-yl)]amine], under setting [1], the Emax amounted to 81.3% and the negative logarithm of the IC50 (pIC50) is 5.00 to 6.00.

Take `Cc1nccn1-c1cn2c(C(C)C)cnc2c(NCc2cccc(C(N)=O)c2)n1` [Example 23, 3-({[3-isopropyl-6-(2-methylimidazolyl)-4-hydroimidazo[1,2-a]pyrazin-8-yl]amino}-methyl)benzamide]: under setting [1], the Emax was 12% and the pIC50 is 5.00 to 6.00.

`Cc1nccn1-c1cn2c(C(C)C)cnc2c(NCc2ccc(C(N)=O)cc2)n1` [Example 31, 4-({[3-isopropyl-6-(2-methylimidazolyl)-4-hydroimidazo[1,2-a]pyrazin-8-yl]amino}methyl)benzamide]: under setting [1], the Emax was found to be 31% and the pIC50 was 5.00 to 6.00.

As for `CC(C)c1cnc2c(NCCc3ccc(O)cc3)nc(-c3cncc(C#N)c3)cn12` [Example 6, 5-(8-{[2-(4-hydroxyphenyl)ethyl]amino}-3-isopropyl-4-hydroimidazo[1,2-a]pyrazin-6-yl)pyridine-3-carbonitrile], under setting [1], the Emax is 100% and the pIC50 is 6.30 to 6.70.

For `CC(C)c1nnc2c(NCCc3ccc(O)cc3)nc(-c3cncc(C#N)c3)cn12` [Example 2, 5-(8-{[2-(4-hydroxyphenyl)ethyl]amino}-3-isopropyl-4-hydro-1,2,4-triazolo[4,3-a]pyrazin-6-yl)pyridine-3-carbonitrile], under setting [1], the Emax was 100% and the negative-log IC50 (pIC50) is greater than 6.70.

Regarding `CC(CO)c1cnc2c(NCCc3c[nH]c4cccc(F)c34)nc(-c3cncc(F)c3)cn12` (stereo not drawn) [Example 21, 2-(6-(5-fluoro-(3-pyridyl))-8-{[2-(4-fluoroindol-3-yl)ethyl]amino}-4-hydroimidazo[1,2-a]pyrazin-3-yl)propan-1-ol], the pIC50 under setting [1] is greater than 6.70. Moreover, the Emax (HepG2, 24 h) is 100%.

As for `CC(C)c1cnc2c(NCCc3n[nH]c4ccccc34)nc(-c3cncc(F)c3)cn12` [Example 20], under setting [1], the Emax worked out at 100% and the pIC50 was greater than 6.70.

On to `Cc1cncc(-c2cn3c(C(C)C)cnc3c(NCCc3c[nH]c4ccccc34)n2)c1` [Example 7, (2-indol-3-ylethyl)[6-(5-methyl(3-pyridyl))-3-isopropyl-(4-hydroimidazo[1,2-a]pyrazin-8-yl)]amine], for which, under setting [1], the Emax stood at 100% and the pIC50 is greater than 6.70.

Regarding `CC(C)c1cnc2c(NCCn3cnc4ccccc43)nc(-c3cncc(F)c3)cn12` [Example 30, (2-benzimidazolylethyl)[6-(5-fluoro(3-pyridyl))-3-isopropyl(4-hydroimidazo[1,2-a]pyrazin-8-yl)]amine], under setting [1], the negative logarithm of the IC50 (pIC50) was 5.00 to 6.00. For the same molecule, for the setting “HepG2, 24 h”, the Emax was 94%.

As to `CC(C)c1cnc2c(NCCc3c[nH]c4cccc(F)c34)nc(-c3cnn(C)c3)cn12` [Example 25, [2-(4-fluoroindol-3-yl)ethyl][3-isopropyl-6-(1-methylpyrazol-4-yl)(4-hydroimidazo[1,2-a]-pyrazin-8-yl)]amine], under setting [1], the Emax was found to be 100% and the pIC50 was greater than 6.70.

As to `Cc1ncc(-c2cn3c(C(C)C)cnc3c(NCCc3c[nH]c4cccc(F)c34)n2)cn1` [Example 27, [2-(4-fluoroindol-3-yl)ethyl][3-isopropyl-6-(2-methylpyrimidin-5-yl)(4-hydroimidazo[1,2-a]pyrazin-8-yl)]amine], under setting [1], the Emax was 100% and the negative-log IC50 (pIC50) was 6.30 to 6.70.

Take `Cc1nccn1-c1cn2c(C(C)C)cnc2c(NCCc2cc[nH]c2)n1` [Example 18, [3-isopropyl-6-(2-methylimidazolyl)(4-hydroimidazo[1,2-a]pyrazin-8-yl)](2-pyrrol-3-ylethyl)amine]: under setting [1], the Emax amounted to 77% and the negative logarithm of the IC50 (pIC50) is 5.00 to 6.00.

Consider `CC(C)c1nnc2c(NCCc3c[nH]c4ccccc34)nc(-c3cncc(C#N)c3)cn12` [Example 4, 5-{8-[(2-indol-3-ylethyl)amino]-3-isopropyl-4-hydro-1,2,4-triazolo[4,3-a]pyrazin-6-yl}pyridine-3-carbonitrile], for which, under setting [1], the Emax worked out at 100% and the pIC50 was greater than 6.70.

On to `Cc1nccn1-c1cn2c(C(C)C)cnc2c(N[C@H](C)Cc2c[nH]c3ccccc23)n1` [Example 17a], for which, under setting [1], the Emax came to 100% and the pIC50 was 6.00 to 6.30.

As to `Cc1cncc(-c2cn3c(C(C)C)nnc3c(NCCc3ccc(O)cc3)n2)c1` [Example 1], under setting [1], the Emax is 100% and the negative-log IC50 (pIC50) is 6.00 to 6.30.

`Cc1cncc(-c2cn3c(C(C)C)ncc3c(NCCc3c[nH]c4ccccc34)n2)c1` [Example 9]: under setting [1], the Emax was determined as 100% and the negative-log IC50 (pIC50) is 6.30 to 6.70.

Regarding `Cc1nccn1-c1cn2c(C(C)C)cnc2c(NCCc2c[nH]c3cc(F)ccc23)n1` [Example 12, [2-(6-fluoroindol-3-yl)ethyl][3-isopropyl-6-(2-methylimidazolyl)(4-hydroimidazo[1,2-a]pyrazin-8-yl)]amine], under setting [1], the Emax is 100% and the pIC50 is greater than 6.70.

As to `Cc1nccn1-c1cn2c(C(C)C)cnc2c(NCCc2c[nH]c3c(F)cccc23)n1` [Example 11, [2-(7-fluoroindol-3-yl)ethyl][3-isopropyl-6-(2-methylimidazolyl)(4-hydroimidazo[1,2-a]pyrazin-8-yl)]amine], the pIC50 under setting [1] was greater than 6.70. Under “HepG2, 24 h”, the Emax was 100%.

Take `CC(C)c1cnc2c(NCCc3c[nH]c4cccc(F)c34)nc(-c3cncc(F)c3)cn12` [Example 24]: the negative-log IC50 (pIC50) under setting [1] is greater than 6.70. The Emax (HepG2, 24 h) was determined as 100%.

For `Cc1nccn1-c1cn2c(C(C)C)cnc2c(OCCc2c[nH]c3ccccc23)n1` [Example 32, 8-(2-indol-3-ylethoxy)-3-(methylethyl)-6-(2-methylimidazolyl)-4-hydroimidazo[1,2-a]pyrazine], under setting [1], the Emax was found to be 100% and the pIC50 is 6.30 to 6.70.
